From a melting point compilation (Tetko et al.; mined from patent text by program, amines drawn as free bases though some values may be those of a salt) come the findings set out here.

Where only a bound is given, the exact number is not on record here.

Broadly, the melting point is the temperature of the solid-liquid transition. For `Cc1ccc(S(=O)(=O)N2CCCC(CSc3ccccc3)C2)cc1` (stereo unspecified), the melting point was 66.7 °C. Take `CC(C)(O)CCOc1c(-c2ccc(S(C)(=O)=O)cc2)cnn(-c2ccc(F)c(F)c2)c1=O`: the melting point lay within 131 to 133 °C. As for `COC(=O)CCCCCCNC(=O)c1cn2c3c(cccc13)CCC2`, the figure is 66 to 67 °C. As for `CCN1C(=O)C(C)(C)C(=O)N(C)c2cc(CN(CCn3ccc4sccc4c3=O)Cc3cc(C)nn3C)ccc21`, the figure is 144 to 146 °C; as for `CC(C)N[C@H](C(=O)O)C(C)C`, above 300 °C. As for `O=C1NC(=O)c2c1cc1ccc3c(c1c2-c1ccncc1)OCO3`, the figure is 299 to 302 °C. `CC(Oc1ccc(Nc2cnc3cc(Cl)ccc3c2)cc1)C(=O)O` (stereo unspecified) showed a melting point of 150 °C. As for `CCCCc1nc(CC(NC(C)=O)(C(=O)OCC)C(=O)OCC)c[nH]1`, the figure is 80 to 92 °C; as for `CC(C)(C)c1cc(-c2nc(Br)no2)cc(C(C)(C)C)c1O`, 113 to 115 °C; as for `CCOC(=O)[C@H](Cc1ccc(C(F)(F)F)cc1)[C@@H](O)c1ccncc1` (racemic), 78 to 80 °C.

For the compound `COC(=O)c1cccc(-n2cncn2)c1`, the melting point was 115 to 120 °C.

The compound `CC(C)=NOCc1nc2c(N)nc(C)c(C)c2n1CCCCNS(C)(=O)=O` yielded a melting point of 157 to 159 °C. `CCc1nc2c(cnn2CC)c(NC2CCOCC2)c1CN(Cc1ccc(OC)c(-c2cccc(CN3CCN(C)CC3)c2)c1)C(=O)c1cccc(C(N)=O)c1`: the melting point was in the range of 120 to 123 °C. With `Cc1ncn(-c2ccc(C#N)c(F)c2)n1` the figure was 133 to 134 °C; with `Nc1cc(Cl)c(Cl)c(Cl)c1N`, 109 to 111 °C; with `O=C(O)C(=Cc1ccco1)SSC(=Cc1ccco1)C(=O)O`, 215 °C. Consider `O=[N+]([O-])c1cc(O)c(F)cc1Cl`, for which the melting point fell in the range of 85 to 86 °C. In the case of `CCSc1ccc(NC=O)cc1S(N)(=O)=O`, the melting point worked out at 127 °C.

As for `CCN(CC)C(=O)N1CCc2c([N+](=O)[O-])cc3[nH]c(=O)c(=O)[nH]c3c2C1`, the melting point is above 300 °C. With `CCCCNc1c([N+](=O)[O-])cc(C)cc1[N+](=O)[O-]` the figure was 52 °C.

`CC1(C)Oc2c(cc(Cl)c3oc(C(=O)O)cc(=O)c23)-c2ccc(S(=O)(=O)O)cc21`: the melting point lay within 257 to 259 °C. As for `O=C(NC(=O)c1cccc(C(F)(F)F)c1)NC1CN2CCC1CC2` (stereo unspecified), the figure is 197 to 200 °C; as for `O=C1Nc2ccccc2CCC1Oc1ccc([N+](=O)[O-])c(OCc2ccccc2)c1` (stereo unspecified), 188 to 189 °C. With `CN1CCCCC1CCc1ccccc1NC(=O)c1cccnc1` (stereo unspecified) the figure was 88 to 90 °C; with `COC(=O)C(=O)N1C(=O)[C@@H](NC(=O)OC(C)(C)C)[C@@H]1OC(C)=O`, 144 to 146 °C; with `O=c1cnc2c(NCCO)nc(SCc3cccc(C(F)(F)F)c3F)nc2[nH]1`, 221 to 222 °C. As for `CC(C)(C)Nc1nc2cc(CC(=O)O)ccc2o1`, the figure is 175 to 176 °C. `CC(=O)Oc1cc(C(C)C)c(NC(=O)CN2CCN(CCSc3nc4ccccc4o3)CC2)c(C(C)C)c1` yielded a melting point of 126 to 129 °C. As for `CCSc1[nH]c2cccc3c2c1CC1C3C=C(C)CN1C` (stereo unspecified), the figure is 168 to 169 °C; as for `Cc1ccc(O)c(Cl)n1`, 190 to 191 °C; as for `O=C1C(=O)c2ccccc2C2=C1SCC1(CCN(C(=O)C(Cl)c3ccccc3)CC1)O2` (stereo unspecified), 125 to 126 °C. On to `COC(=O)Cc1cccc2c1NC(=O)C2`, for which the melting point lay in the range of 156 to 157 °C. With `NCCC1CCC(C(O)(P(=O)(O)O)P(=O)(O)O)CC1` (stereo unspecified) the figure was 226 to 230 °C. With `COS(=O)(=O)Oc1ccc(-c2cccc(-c3nc(C(C)C)[nH]c3-c3cccc(C)n3)c2)cc1` the figure was 95 to 105 °C; with `CCc1nc(N)nc(N)c1-c1ccc(N(C)Cc2ccc(C(=O)NC)cc2)c([N+](=O)[O-])c1`, 235 to 237 °C. The compound `CCOC(=O)c1cn(C)c2cc(-c3ccccc3)sc2c1=O` yielded a melting point of 189 to 191 °C. For `CC1(C)[C@@H]2CC3[C@H](C(N)=O)[C@@]3(C)C[C@@H]21` (stereo partly specified), the melting point was determined as 122 °C. As for `CC(C)CN1C(=O)C(C)(C)C(=O)Nc2cc(C#N)ccc21`, the figure is 204 to 205 °C; as for `CCc1c(OC)cc(C)c(C=CC(C)=CC=CC(C)=CC(=O)O)c1C`, 197 to 198 °C; as for `COc1ccc(S(=O)(=O)N2CCC[C@H]2C(=O)N2CCN(C(=O)c3ccc(C=NN)cc3)CC2)c(OC)c1COc1cccc2c(C)cc(C)nc12`, 136 °C. With `CC(C)(C)OC(=O)N1CCN(c2c(F)cc(N3CC(CN=[N+]=[N-])OC3=O)cc2F)CC1` (stereo unspecified) the figure was 115 to 117 °C. As for `Cc1oc(-c2ccccc2)nc1CCOc1ccc(C[C@@H](C(=O)O)N2CCN(S(=O)(=O)c3ccc(F)cc3)CC2)cc1`, the figure is 198 to 200 °C; as for `CCSc1cc2c(c(C(=O)O)c1)OCCO2`, 153 to 154 °C; as for `Cc1coc(NC(=S)Nc2c(C)cccc2Cl)n1`, 222 °C.

For the compound `Cc1cc(C)cc(OCCCC(=O)O)c1`, the melting point lay within 66 to 68.5 °C. With `ClCCCOc1ccccc1Nc1nc(Cl)nc2[nH]cnc12` the figure was 205 °C; with `O=C(CSCc1ccc2c(c1)OCO2)NO`, 127 to 128 °C; with `COc1cccc(C(=O)c2ccc(C(F)(F)F)cc2)c1`, 69 °C. As for `CCc1cc(Oc2ccc([N+](=O)[O-])cc2C(F)(F)F)nn1C(=O)NC`, the figure is 97 to 100 °C; as for `CCN(CC)C(=O)CCCC1CCN(Cc2cnc3cc(NC(=O)c4ccc(-c5ccc(F)cc5)cc4)c(C)cc3c2)CC1`, 181 °C. With `COc1ccc2c(c1OC)C(=O)O[C@@H]2[C@H]1c2c(c(Br)c3c(c2OC)OCO3)CCN1C` the figure was 169 to 170 °C; with `CCCC[C@H](OCC[C@]1(C(=O)N2CCC(OCOC)CC2)C=CC=CC1)C(=O)N[C@@H](CC1CCCCC1)[C@@H](O)C(F)(F)CN(C)C`, 47 to 49 °C.

Consider `CC(O)(C=Cc1ccc(S(=O)(=O)c2ccncc2)cc1)C(F)(F)F` (stereo unspecified), for which the melting point was in the range of 168 to 171 °C. With `CC(=O)NCCC1CCc2ccc3nc(CCCc4ccccc4)oc3c21` (stereo unspecified) the figure was 95 to 97 °C.

In the case of `O=C(O)CCCCCN1CCN2c3ccccc3Cc3ccccc3C2C1` (stereo unspecified), the melting point lay within 181 to 182 °C. With `CC(=O)Oc1ccc(C(=O)c2ccc(C)c(OC(C)=O)c2)cc1` the figure was 60 to 64 °C. With `CCOc1ccc(-c2nc(OC)ccc2N2CCC(c3ccc(OC)cc3)N(C)CC2)cc1` (stereo unspecified) the figure was 103 to 107 °C. With `CCOC(=O)N[C@@H]1Cc2ccccc2[C@H]1Cl` (relative stereo) the figure was 82 to 84 °C; with `Cc1nc2ccc(F)cc2c(=O)n1-c1ccccc1Cl`, 137 to 138 °C; with `CC[Si](CC)(CC)c1ccccc1S(N)(=O)=O`, 85.6 °C.

In the case of `COc1cccc(NC(=O)NC2N=C(c3ccccc3F)c3ccccc3N(C)C2=O)c1` (stereo unspecified), the melting point is 271 to 273 °C. With `Cc1ccc(C)c2c1CCC2=NNC(N)=NC(c1ccccc1)c1ccccc1` the figure was 271 to 273 °C. With `CC1(C)CC(CS(=O)(=O)NCC(=O)O)c2cc(OCc3ccccc3)ccc2O1` (stereo unspecified) the figure was 131 °C; with `O=C(COc1cccc(CCNS(=O)(=O)c2ccc(Br)cc2)c1)Nc1nnn[nH]1`, 205 to 206 °C; with `CC(=O)N1CCc2ccc(C(=O)CCC(=O)N3CCC(c4ccc(Cl)cc4)CC3)cc2CC1`, 110 to 112 °C.

With `COc1ccc(-c2nccc(C)c2OC2SCC(O)C(O)C2O)cc1` (stereo unspecified), the melting point turned out to be 101 °C. With `CC(C)(C)OC(=O)NCc1ccc(OCCC2Oc3ccccc3N(Cc3ccc(Cl)cc3)C2=O)cc1` (stereo unspecified) the figure was 121 to 122 °C. With `COC(=O)C(Oc1ccc(C(C)(C)C)cc1Cl)c1ccc(Oc2ccc(Cl)cc2)cc1` (stereo unspecified) the figure was 85.5 to 88 °C; with `O=C(O)c1ccc2[nH]cc(CCCCN3CC=C(c4ccccc4)CC3)c2c1`, 284 to 285 °C; with `COc1cccc2c1C(c1ccc(Cl)cc1)NC(=O)C2` (stereo unspecified), 250 to 251 °C. As for `O=C(O)C1(c2ccc(Nc3nc(C4CCCC4)nc4c3CCC4)cc2)CCCC1`, the figure is 321 to 325 °C. In the case of `Nc1ncnc2c1ncn2Cc1nc2cccc(Cl)c2c(=O)n1-c1ccccc1F`, the melting point came out at 296 °C. As for `O=[N+]([O-])c1ccc(-c2cnc3nc(SCc4ccccc4)nn3c2)cc1`, the figure is 195 to 199 °C. `COc1ccc(S(=O)(=O)N2CCc3cccc(-c4ccc(Cl)cc4)c32)cc1` yielded a melting point of 177 to 178 °C.

`CCOC(=O)CCOc1cccc2c1CCCC2=O`: the melting point lay in the range of 57 to 59 °C. With `CN(C)c1ccc2c(c1)CNC2=O` the figure was 122 to 124 °C.

With `COc1cc2c(cc1-c1ccc(F)cc1C)NC(=O)CC(c1cccc(-n3ccnc3)c1)=N2`, the melting point was determined as 225 °C. As for `N#Cc1ccc(C(=O)N2CCC3(CC2)OCCO3)cn1`, the figure is 133 to 135 °C; as for `COC(=O)CSc1cccc(NC(=O)NCC(=O)N(CC(=O)OC(C)(C)C)c2ccccc2C(=O)c2ccccc2)c1`, 131 to 133 °C. As for `CC(C)=CCn1cc(C)nc1[N+](=O)[O-]`, the figure is 53 to 54 °C. With `CSC1CC(=O)N1CC(=O)OCc1ccccc1` (single isomer, unassigned; (-)) the figure was 38 to 40 °C. On to `O=C(CCl)Nc1ccc2ncnc(Nc3cccc(I)c3)c2c1`, for which the melting point was above 300 °C. With `COCCOc1cc2ncnc(NC3=CC(=O)C(OCc4ccccc4)=CC3=O)c2cc1OC` the figure was 218 to 220 °C.

The compound `CCCC[C@H](NC(=O)[C@@H](NC(=O)OCc1ccccc1)c1ccccc1)C(=O)CSCc1ccco1` showed a melting point of 144 to 146 °C.

In the case of `CCc1cc(C(=O)c2ccccc2Cl)c(-n2c(C)nnc2CNC(=O)/C=C/c2ccccc2)s1`, the melting point is 150 to 151 °C. As for `CNc1ccc(OC2CCN(c3ccncc3)CC2)cc1`, the figure is 161 to 164 °C.
